The values below come from patent US20040152739A1, “Acyclic pyrazole compounds for the inhibition of mitogen activated protein kinase-activated protein kinase-2” (priority 2002, published 2004).

Structures can show the parent of a compound that is named as a salt.

The term IC50 denotes the concentration needed to halve the response being measured.

The target in this assay is MK-2 (Homo sapiens, UniProt P49137). Briefly: Determination of MK-2 IC50 (anion exchange resin capture assay, HSP-peptide phosphorylation). It is filed as biochemical. To be noted: read-out: MK-2 Avg. IC50.
Chain of MK-2 (P49137 whole entry, species assumed): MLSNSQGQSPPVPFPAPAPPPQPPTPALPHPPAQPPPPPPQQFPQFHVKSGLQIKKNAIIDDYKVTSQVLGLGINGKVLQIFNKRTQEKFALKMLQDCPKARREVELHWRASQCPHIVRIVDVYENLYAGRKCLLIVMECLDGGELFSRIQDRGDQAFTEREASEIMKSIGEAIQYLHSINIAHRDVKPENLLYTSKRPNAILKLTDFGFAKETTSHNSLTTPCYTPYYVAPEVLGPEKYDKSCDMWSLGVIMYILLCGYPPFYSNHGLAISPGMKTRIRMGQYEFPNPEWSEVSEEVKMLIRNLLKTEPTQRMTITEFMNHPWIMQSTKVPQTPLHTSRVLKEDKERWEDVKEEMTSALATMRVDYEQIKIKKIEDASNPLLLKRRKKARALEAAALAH
Protocol: The phosphorylation of HSP-peptide ([sequence]) by MAPKAPK2 was measured using an anion exchange resin capture assay method. […] The reaction was terminated and [γ^33P]ATP was removed from solution by the addition of 150 μl of AG 1×8 ion exchange resin in 900 mM sodium formate pH 3.0. A 50 μl aliquot of head volume was removed from the quenched reaction mixture and added to a 96-well plate, 150 μl of Microscint-40 (Packard) was added and the amount of phosphorylated-peptide was determined. Allow the Microscint to sit in the plates for 60 minutes prior to counting.
Compounds are evaluated as potential inhibitors of the MK2 kinase by measuring their effects on MK2 phosphorylation of the peptide substrate. Compounds may be screened initially at two concentrations prior to determination of IC50 values. Screening results are expressed as percent inhibition at the concentrations of compound tested. For IC50 value determinations, compounds are tested at six concentrations in ten-fold serial dilutions with each concentration tested in triplicate. Results are expressed as IC50 values in micromolar. The assay is performed at a final concentration of 2% DMSO.
Compounds are evaluated as potential inhibitors of the MK-2 kinase by measuring their effects on MK-2 phosphorylation of the peptide substrate. Compounds may be screened initially at two concentrations prior to determination of IC50 values. Screening results are expressed as percent inhibition at the concentrations of compound tested. For IC50 value determinations, compounds are tested at six concentrations in ten-fold serial dilutions with each concentration tested in triplicate. Results are expressed as IC50 values in micromolar. The assay is performed at a final concentration of 2% DMSO.
On to `CCOC(=O)c1cc(-c2ccncc2)nn1CCN` [Example 133, ethyl 1-(2-aminoethyl)-3-pyridin-4-yl-1H-pyrazole-5-carboxylate dihydrochloride], for which the IC50 was 24.5 µM.
For `O=C1NCCn2nc(-c3ccnc(-c4ccc5occc5c4)c3)cc21` [Example 37, trifluoroacetate] the value was 0.543 µM; for `O=C1NCCn2nc(-c3ccnc(-c4ccc(O)cc4)c3)cc21` [Example 42, trifluoroacetate], 0.611 µM.
Consider `NCCCn1nc(-c2ccncc2)cc1C(=O)O` [Example 63], for which the IC50 was found to be 1.16 µM.
On to `O=C1NCCn2nc(-c3ccnc(-c4ccc5c(c4)CNCC5)c3)cc21` [Example 82, trifluoroacetate], for which the IC50 was 2.08 µM.
For `O=C1NCCn2nc(-c3ccnc(-c4ccc(OC(F)(F)F)cc4)c3)cc21` [Example 149, 2-{2-[4-(trifluoromethoxy)phenyl]pyridin-4-yl}-6,7-dihydropyrazolo[1,5-a]pyrazin-4(5H)-one trifluoroacetate] the value was 131 µM; for `NCCn1nc(-c2ccnc(-c3ccc(OC(F)(F)F)cc3)c2)cc1C(=O)O` [Example 11], 0.161 µM; for `NCc1cccc(-c2cc(-c3cc4n(n3)CCNC4=O)ccn2)c1` [Example 97, trifluoroacetate], 3.25 µM.
Turning to `Nc1ccc(-c2cc(-c3cc4n(n3)CCNC4=O)ccn2)cc1` [Example 52, hydrochloride], the IC50 worked out at 0.914 µM.
For `CC(C)NCc1cccc(-c2cc(-c3cc4n(n3)CCNC4=O)ccn2)c1` [Example 115, 2-(2-{3-[(isopropylamino)methyl]phenyl}pyridin-4-yl)-6,7-dihydropyrazolo[1,5-a]pyrazin-4(5H)-one] the value was 6.27 µM; for `Nc1cccc(-c2cc(-c3cc4n(n3)CCNC4=O)ccn2)c1` [Example 68], 1.3 µM; for `CCOC(=O)c1cc(-c2ccnc(-c3ccc(CO)cc3)c2)nn1CCN` [Example 96, trifluoroacetate], 3.25 µM.
For `O=C1NCCn2nc(-c3ccncc3)cc21` [Example 88] the value was 2.6 µM.
As for `CCOC(=O)c1cc(-c2ccncc2)nn1CCCN` [Example 143, ethyl 1-(3-aminopropyl)-3-pyridin-4-yl-1H-pyrazole-5-carboxylate hydrochloride], the IC50 worked out at 60.8 µM.
For `O=C1NCCn2nc(-c3ccnc(-c4cccc(Cl)c4)c3)c(Br)c21` [Example 72, hydrochloride] the value was 1.39 µM.
For `COc1ccc(-c2cc(-c3cc4n(n3)CCNC4=O)ccn2)cn1` [Example 50, trifluoroacetate] the value was 0.866 µM.
With `CS(=O)(=O)c1cccc(-c2cc(-c3cc4n(n3)CCNC4=O)ccn2)c1` [Example 83, trifluoroacetate], the concentration for half-maximal inhibition (IC50) turned out to be 2.1 µM.
For `O=C1NCCn2nc(-c3ccnc(-c4ccc(OCCN5CCOCC5)cc4)c3)cc21` [Example 43, dihydrochloride] the value was 0.63 µM; for `O=C1NCCn2nc(-c3ccnc(-c4ccc(CO)cc4)c3)cc21` [Example 54, trifluoroacetate], 0.929 µM.
Take `CS(=O)(=O)Nc1cccc(-c2cc(-c3cc4n(n3)CCNC4=O)ccn2)c1` [Example 85, dihydrochloride]: the IC50 was 2.29 µM.
Consider `O=C1NCCn2nc(-c3ccnc(-c4cncnc4)c3)cc21` [Example 81, hydrochloride], for which the IC50 is 1.99 µM.
Regarding `O=C1NCCn2nc(-c3ccnc(-c4ccc(Cl)c(Cl)c4)c3)cc21` [Example 144, 2-[2-(3,4-dichlorophenyl)pyridin-4-yl]-6,7-dihydropyrazolo[1,5-a]pyrazin-4(5H)-one trifluoroacetate], the IC50 came out at 65.5 µM.
For `O=C1NCCn2nc(-c3ccnc(/C=C/c4ccccc4)c3)cc21` [Example 28] the value was 0.371 µM.
For `O=C1NCCn2nc(-c3ccnc(-c4ccc5c(c4)OCCO5)c3)cc21` [Example 76, trifluoroacetate] the value was 1.56 µM; for `O=C1NCCn2nc(-c3ccnc(-c4ccc(CN5CCOCC5)cc4)c3)cc21` [Example 94, bis(trifluoroacetate)], 2.99 µM.
With `O=C1NCCCn2nc(-c3ccnc(-c4cccc(CO)c4)c3)cc21` [Example 106, 2-{2-[3-(hydroxymethyl)phenyl]pyridin-4-yl}-5,6,7,8-tetrahydro-4H-pyrazolo[1,5-a][1,4]diazepin-4-one trifluoroacetate], the IC50 came to 4.54 µM.
For `NCCCn1nc(-c2ccnc(-c3ccc(O)cc3)c2)cc1C(=O)O` [Example 8] the value was 0.102 µM; for `O=C1NCCn2nc(-c3ccnc(-c4cccc(OCCN5CCOCC5)c4)c3)cc21` [Example 116, 2-{2-[3-(2-morpholin-4-ylethoxy)phenyl]pyridin-4-yl}-6,7-dihydropyrazolo[1,5-a]pyrazin-4(5H)-one], 6.73 µM.
For `NCCn1nc(-c2ccnc(-c3cccc([N+](=O)[O-])c3)c2)cc1C(=O)O` [Example 9] the value was 0.109 µM; for `NCCCn1nc(-c2ccnc(-c3cnc4ccccc4c3)c2)cc1C(=O)O` [Example 7], 0.0686 µM.
For `CCOC(=O)c1cc(-c2ccnc(-c3cccc([N+](=O)[O-])c3)c2)nn1CCCN` [Example 137, ethyl 1-(3-aminopropyl)-3-[2-(3-nitrophenyl)pyridin-4-yl]-1H-pyrazole-5-carboxylate dihydrochloride] the value was 31.6 µM; for `O=C1NCCn2nc(-c3ccnc(-c4ccc5c(c4)CCO5)c3)cc21` [Example 36, trifluoroacetate], 0.521 µM.
`O=C1Cc2cc(-c3cc(-c4cc5n(n4)CCNC5=O)ccn3)ccc2N1` [Example 38, trifluoroacetate]: the IC50 was 0.554 µM.
Turning to `CC(C)NCc1ccc(-c2cc(-c3cc4n(n3)CCNC4=O)ccn2)cc1` [Example 78], the IC50 is 1.73 µM.
